From patent US20120302566A1, “INDANYLOXYDIHYDROBENZOFURANYLACETIC ACIDS” (BOEHRINGER INGELHEIM INTERNATIONAL GMBH, priority 2010, published 2012)

Biological target: human GPR40 receptor (Homo sapiens, UniProt O14842)
Experiment: IP1 accumulation measurements using the IPOne assay system
Type: cell-based
Settings: IP1 accumulation (IPOne HTRF), 1 hour stimulation; 1321N1 cells stably expressing human GPR40; read-out: EC50 values on GPR40 determined as described in (B)
Description: (B) IP1 accumulation measurements using the IPOne assay system—1321N1 cells stably expressing human GPR40 receptor (Euroscreen, Belgium) were seeded 24 h before the assay in black clear-bottom collagen-coated 384-well plates in culture medium containing 10% FCS, 1% Na-Pyruvate and 400 μg/mL G418. IP1 is assayed according to the Manufacturer's description (Cisbio Bioassays, France). In brief, the assay is started by substitution of the culture medium by stimulation buffer (Hepes 10 mM, CaCl2 1 mM, MgCl2 0.5 mM, KCl 4.2 mM, NaCl 146 mM and glucose 5.5 mM, pH 7.4) without LiCl. Cells are stimulated for 1 hour at 37°, 10% CO2 by addition of the compounds that were diluted in stimulation buffer containing LiCl yielding a final LiCl concentration of 50 mM. Assays are stopped by adding HTRF-conjugates (IP1-d2 and Anti-IP1 cryptate Tb) and lysis buffer, provided by the manufacturer. After an incubation time of 1 hour at room temperature plates are measured using an EnVision™, Perkin Elmer.

Chain of human GPR40 receptor (O14842 whole entry): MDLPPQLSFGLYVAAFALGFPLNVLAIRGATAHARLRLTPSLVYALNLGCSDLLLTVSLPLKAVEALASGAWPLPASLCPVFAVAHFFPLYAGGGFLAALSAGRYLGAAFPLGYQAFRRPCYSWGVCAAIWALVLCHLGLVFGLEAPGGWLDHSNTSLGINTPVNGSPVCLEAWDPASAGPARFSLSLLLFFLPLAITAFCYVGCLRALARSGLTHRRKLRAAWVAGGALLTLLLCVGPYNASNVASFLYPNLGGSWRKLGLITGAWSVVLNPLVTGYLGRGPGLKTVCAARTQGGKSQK

SMILES: CC(C)c1cccc2c1CC[C@H]2Oc1ccc2c(c1)OC[C@H]2CC(=O)O [Example 32, {(S)-6-[(R)-4-Isopropyl-indan-1-yloxy]-2,3-dihydro-benzofuran-3-yl}-acetic acid]
- EC50: 98 nM

SMILES: CC1OC(c2cccc3c2CC[C@H]3Oc2ccc3c(c2)OC[C@H]3CC(=O)O)C1(C)C (single isomer, unassigned) [Example 42]
- EC50: 131 nM

SMILES: C=CCCC(C)(O)c1cccc2c1CC[C@H]2Oc1ccc2c(c1)OC[C@H]2CC(=O)O (stereo partly drawn) [Example 82, {(S)-6-[(R)-4-(1-Hydroxy-1-methyl-pent-4-enyl)-indan-1-yloxy]-2,3-dihydro-benzofuran-3-yl}-acetic acid]
- EC50: 3350 nM

SMILES: Cc1cccc(C)c1-c1ccc2c(c1)[C@@H](Oc1ccc3c(c1)OC[C@H]3CC(=O)O)CC2 [Example 53, {(S)-6-[(S)-6-(2,6-Dimethyl-phenyl)-indan-1-yloxy]-2,3-dihydro-benzofuran-3-yl}-acetic acid]
- EC50: 211 nM

SMILES: CC1(C)CCC=C1c1cccc2c1CC[C@H]2Oc1ccc2c(c1)OC[C@H]2CC(=O)O [Example 40, {(S)-6-[(R)-4-(5,5-Dimethyl-cyclopent-1-enyl)-indan-1-yloxy]-2,3-dihydro-benzofuran-3-yl}-acetic acid]
- EC50: 13 nM

SMILES: CO[C@H](c1cccc2c1CC[C@H]2Oc1ccc2c(c1)OC[C@H]2CC(=O)O)C(F)(F)F (single isomer, unassigned) [Example 38, {(S)-6-[(R)-4-((R)*-2,2,2-Trifluoro-1-methoxy-ethyl)-indan-1-yloxy]-2,3-dihydro-benzofuran-3-yl}-acetic acid]
- EC50: 131 nM

SMILES: O=C(O)C[C@@H]1COc2cc(O[C@@H]3CCc4c3ccc(F)c4F)ccc21 [Example 37, {(S)-6-[(R)-4,5-Difluoro-indan-1-yloxy]-2,3-dihydro-benzofuran-3-yl}-acetic acid]
- EC50: 78 nM

SMILES: O=C(O)C[C@@H]1COc2cc(O[C@H]3CCc4ccc(Br)cc43)ccc21 [Example 55, {(S)-6-[(S)-6-Bromo-indan-1-yloxy]-2,3-dihydro-benzofuran-3-yl}-acetic acid]
- EC50: 2910 nM

SMILES: CC(C)(C)c1ccc2c(c1)CC[C@H]2Oc1ccc2c(c1)OC[C@H]2CC(=O)O [Example 95, {(S)-6-[(R)-5-tert-Butyl-indan-1-yloxy]-2,3-dihydro-benzofuran-3-yl}-acetic acid]
- EC50: 100 nM

SMILES: CC(O)(CC1CCOCC1)c1cccc2c1CC[C@H]2Oc1ccc2c(c1)OC[C@H]2CC(=O)O (stereo partly drawn) [Example 83, ((S)-6-{(R)-4-[1-Hydroxy-1-methyl-2-(tetrahydro-pyran-4-yl)-ethyl]-indan-1-yloxy}-2,3-dihydro-benzofuran-3-yl)-acetic acid]
- EC50: 392 nM

SMILES: O=C(O)C[C@@H]1COc2cc(O[C@@H]3CCc4cccc(C(F)(F)F)c43)ccc21 [Example 23, {(S)-6-[(R)-7-Trifluoromethyl-indan-1-yloxy]-2,3-dihydro-benzofuran-3-yl}-acetic acid]
- EC50: 9120 nM

SMILES: Cn1ccnc1-c1cccc2c1CC[C@H]2Oc1ccc2c(c1)OC[C@H]2CC(=O)O [Example 57, {(S)-6-[(R)-4-(1-methyl-1H-imidazol-2-yl)-indan-1-yloxy]-2,3-dihydro-benzofuran-3-yl}-acetic acid]
- EC50: 8900 nM

SMILES: Cc1nn(C)c(C)c1-c1cccc2c1CC[C@H]2Oc1ccc2c(c1)OC[C@H]2CC(=O)O [Example 49, {(S)-6-[(R)-4-(1,3,5-Trimethyl-1H-pyrazol-4-yl)-indan-1-yloxy]-2,3-dihydro-benzofuran-3-yl}-acetic acid]
- EC50: 1910 nM

SMILES: O=C(O)C[C@@H]1COc2cc(O[C@@H]3CCc4c3cccc4-n3ccccc3=O)ccc21 [Example 51, {(S)-6-[(R)-4-(2-Oxo-2H-pyridin-1-yl)-indan-1-yloxy]-2,3-dihydro-benzofuran-3-yl}-acetic acid]
- EC50: 9670 nM

SMILES: CC(C)(C)Cc1cccc2c1CC[C@H]2Oc1ccc2c(c1)OC[C@H]2CC(=O)O [Example 34, {(S)-6-[(R)-4-(2,2-Dimethyl-propyl)-indan-1-yloxy]-2,3-dihydro-benzofuran-3-yl}-acetic acid]
- EC50: 13 nM

SMILES: CC1(C)CCCO[C@@H]1c1cccc2c1CC[C@H]2Oc1ccc2c(c1)OC[C@H]2CC(=O)O (single isomer, unassigned) [Example 66]
- EC50: 80 nM

SMILES: CC(C)c1ccccc1-c1cccc2c1CC[C@H]2Oc1ccc2c(c1)OC[C@H]2CC(=O)O [Example 35, {(S)-6-[(R)-4-(2-Isopropyl-phenyl)-indan-1-yloxy]-2,3-dihydro-benzofuran-3-yl}-acetic acid]
- EC50: 4 nM

SMILES: Cc1cn(C)c(=O)c(C)c1-c1cccc2c1CC[C@H]2Oc1ccc2c(c1)OC[C@H]2CC(=O)O [Example 61, {(S)-6-[(R)-4-(1,3,5-Trimethyl-2-oxo-1,2-dihydro-pyridin-4-yl)-indan-1-yloxy]-2,3-dihydro-benzofuran-3-yl}-acetic acid]
- EC50: 155 nM

SMILES: CO[C@H](c1cccc2c1CC[C@H]2Oc1ccc2c(c1)OC[C@H]2CC(=O)O)C(C)(C)C (single isomer, unassigned) [Example 29, {(S)-6-[(R)-4-((S)*-1-Methoxy-2,2-dimethyl-propyl)-indan-1-yloxy]-2,3-dihydro-benzofuran-3-yl}-acetic acid]
- EC50: 14 nM

SMILES: Cc1ccc2c(c1C(F)(F)F)CC[C@H]2Oc1ccc2c(c1)OC[C@H]2CC(=O)O [Example 36, {(S)-6-[(R)-5-Methyl-4-trifluoromethyl-indan-1-yloxy]-2,3-dihydro-benzofuran-3-yl}-acetic acid]
- EC50: 19 nM

SMILES: O=C(O)C[C@@H]1COc2cc(O[C@@H]3CCc4c(-c5c(Cl)cccc5Cl)cccc43)ccc21 [Example 88, {(S)-6-[(R)-4-(2,6-Dichloro-phenyl)-indan-1-yloxy]-2,3-dihydro-benzofuran-3-yl}-acetic acid]
- EC50: 28 nM

SMILES: Cc1ncnc(C)c1-c1cccc2c1CC[C@H]2Oc1ccc2c(c1)OC[C@H]2CC(=O)O [Example 86, {(S)-6-[(R)-4-(4,6-Dimethyl-pyrimidin-5-yl)-indan-1-yloxy]-2,3-dihydro-benzofuran-3-yl}-acetic acid]
- EC50: 414 nM

SMILES: Cc1ccc(O)cc1-c1cccc2c1CC[C@H]2Oc1ccc2c(c1)OC[C@H]2CC(=O)O [Example 72, {(S)-6-[(R)-4-(5-Hydroxy-2-methyl-phenyl)-indan-1-yloxy]-2,3-dihydro-benzofuran-3-yl}-acetic acid]
- EC50: 98 nM

SMILES: Cc1c(O[C@@H]2CCc3c2cccc3C(F)(F)F)ccc2c1OCC2CC(=O)O (mixture of isomers) [Example 105, {7-Methyl-6-[(R)-4-trifluoromethyl-indan-1-yloxy]-2,3-dihydro-benzofuran-3-yl}-acetic acid]
- EC50: 4250 nM

SMILES: Cc1cccc(Cl)c1-c1cccc2c1CC[C@H]2Oc1ccc2c(c1)OC[C@H]2CC(=O)O [Example 90, {(S)-6-[(R)-4-(2-Chloro-6-methyl-phenyl)-indan-1-yloxy]-2,3-dihydro-benzofuran-3-yl}-acetic acid]
- EC50: 36 nM

SMILES: Cc1ccnc(C)c1-c1cccc2c1CC[C@H]2Oc1ccc2c(c1)OC[C@H]2CC(=O)O [Example 93, {(S)-6-[(R)-4-(2,4-Dimethyl-pyridin-3-yl)-indan-1-yloxy]-2,3-dihydro-benzofuran-3-yl}-acetic acid]
- EC50: 61 nM

SMILES: CC(C)c1ccccc1-c1ccc2c(c1)CC[C@H]2Oc1ccc2c(c1)OC[C@H]2CC(=O)O [Example 54, {(S)-6-[(R)-5-(2-Isopropyl-phenyl)-indan-1-yloxy]-2,3-dihydro-benzofuran-3-yl}-acetic acid]
- EC50: 258 nM

SMILES: CO[C@@H](c1cccc2c1CC[C@H]2Oc1ccc2c(c1)OC[C@H]2CC(=O)O)C(F)(F)F (single isomer, unassigned) [Example 39, {(S)-6-[(R)-4-((S)*-2,2,2-Trifluoro-1-methoxy-ethyl)-indan-1-yloxy]-2,3-dihydro-benzofuran-3-yl}-acetic acid]
- EC50: 262 nM

SMILES: O=C(O)C[C@@H]1COc2cc(O[C@@H]3CCc4c(C5CC5)cccc43)ccc21 [Example 31, {(S)-6-[(R)-4-Cyclopropyl-indan-1-yloxy]-2,3-dihydro-benzofuran-3-yl}-acetic acid]
- EC50: 168 nM

SMILES: Cc1nccnc1-c1cccc2c1CC[C@H]2Oc1ccc2c(c1)OC[C@H]2CC(=O)O [Example 99, {(S)-6-[(R)-4-(3-Methyl-pyrazin-2-yl)-indan-1-yloxy]-2,3-dihydro-benzofuran-3-yl}-acetic acid]
- EC50: 3270 nM

SMILES: Cc1ccc2ccccc2c1-c1cccc2c1CC[C@H]2Oc1ccc2c(c1)OC[C@H]2CC(=O)O [Example 80, {(S)-6-[(R)-4-(2-Methyl-naphthalen-1-yl)-indan-1-yloxy]-2,3-dihydro-benzofuran-3-yl}-acetic acid]
- EC50: 20 nM

SMILES: Cc1cccnc1-c1cccc2c1CC[C@H]2Oc1ccc2c(c1)OC[C@H]2CC(=O)O [Example 58, {(S)-6-[(R)-4-(3-Methyl-pyridin-2-yl)-indan-1-yloxy]-2,3-dihydro-benzofuran-3-yl}-acetic acid]
- EC50: 534 nM

SMILES: COc1cc(C)c(-c2cccc3c2CC[C@H]3Oc2ccc3c(c2)OC[C@H]3CC(=O)O)c(C)c1 [Example 59, {(S)-6-[(R)-4-(4-Methoxy-2,6-dimethyl-phenyl)-indan-1-yloxy]-2,3-dihydro-benzofuran-3-yl}-acetic acid]
- EC50: 325 nM

SMILES: O=C(O)C[C@@H]1COc2cc(O[C@@H]3CCc4c(OC(F)(F)F)cccc43)ccc21 [Example 25, {(S)-6-[(R)-4-Trifluoromethoxy-indan-1-yloxy]-2,3-dihydro-benzofuran-3-yl}-acetic acid]
- EC50: 18 nM
